# Values joined by “and” are separate entries in the source; they are usually repeats but may differ in a detail not shown here. Equal values may be shown once. Read-outs that look alike come from different tables or passages of the source.
# What was measured:
# [1] = tested on: MMP-9 in MDA-MB-231 cells; assay: MMP-9 ELISA in culture supernatants; assay type: cell-based, human; settings: MDA-MB-231, 24 h, all examined doses
# Method: (§1) In order to determine the Beclin-1 concentration in the cell lysates, the SimpleStep ELISA (Abcam, Cambridge, UK) Kit was used. MMP-2, MMP-9, and ICAM-1 concentrations were measured in culture supernatants using high-sensitivity human SimpleStep ELISA kits (Abcam, Cambridge, UK) according to the manufacturer’s protocols. The LC3B ELISA kit (BT LAB, Shanghai, China) was used to check the protein concentration in cell lysates from analyzed breast cancer cells. The procedure for preparing the samples was shown previously.
# MDA-MB-231 cells [2] = assay: Annexin V/PI flow cytometry of apoptosis; assay type: cell-based, human; settings: MDA-MB-231, 24 h
# Method: (§2) Cells were washed twice with cold PBS and resuspended in the Binding Buffer from the Kit. The FITC Annexin V and propidium iodide (PI) were added to 100 µL of cell suspension and incubated for 15 min at room temperature, protected from light. Then, 300 µL of Binding Buffer was added, and samples were analyzed using a flow cytometer. A total of 10,000 events were measured. The FACSDiva software (Version 6.1.3, BD Biosciences Systems, San Jose, CA, USA) was applied to analyze all flow cytometry data. The BD Cytometer Setup and Tracking Beads (BD Biosciences, San Diego, CA, USA) were used for the calibration of the flow cytometer.
# MCF-7 cells [3] = assay: Annexin V/PI flow cytometry of apoptosis; assay type: cell-based, human; settings: MCF-7, 24 h
# Method: as §2
# MCF-10A cells [4] = assay: Clonogenic assay; assay type: cell-based; settings: Homo sapiens; for IC50: 72 h exposure, 14 days culture, read-out: IC50 (M ± SD) in clonogenic assay
# Method: (§3) The clonogenic assay was carried out utilizing the previously published methodology. The MCF-7, MDA-MB-231, HCC1954, and MCF-10A cells (500 cells/2 mL) were seeded in a 12-well plate overnight. Afterward, studied derivatives or doxorubicin (1, 2.5, 5, 10, and 50 µM) were added to cells. The media was changed after 72 h to a compound-free one, and the cells were cultured for the following 14 days. Then, the cells were washed, fixed, and stained with 0.1% crystal violet. After washing, the plates were dried at room temperature. The colonies were recorded by ImageJ software (Version 1.30). The value of colonies in control (non-treated cells) was accepted as 100%. The effect of compounds on the colony-forming ability of cells was expressed as the percentage of colonies compared to the control.
# MMP-2 in MCF-7 cells = assay: MMP-2 ELISA in culture supernatants; assay type: cell-based, human; settings: MCF-7, 24 h, control 610.57 pg/mL
# Method: as §1
# [5] = tested on: MMP-2 in MDA-MB-231 cells; assay: MMP-2 ELISA in culture supernatants; assay type: cell-based, human; settings: MDA-MB-231, 24 h, 2 μM; control 1055.21 pg/mL
# Method: as §1
# MDA-MB-231 cells [6] = assay: MTT assay; assay type: cell-based; settings: Homo sapiens, read-out: IC50, µM (M ± SD)
# Method: (§4) The MCF-7 and MDA-MB-231 cells were cultured in the DMEM medium containing 10% of the FBS, HCC1954, T-47D, and 4T1 cells in the RPMI-1640 medium with the addition of 10% of the FBS, and MCF-10A cells in MEGM Mammary Epithelial Cell Growth Medium BulletKit supplemented with penicillin/streptomycin cocktail and 5% of horse serum. The cells were cultured in a […] atmosphere at 5% CO2 and 37 °C. After trypsinization, cells were counted using a Scepter 3.0 handheld automated cell counter (Millipore, Burlington, MA, USA).
# (§5) The MTT test was used to assess the metabolic activity of cells treated with the investigated substances following the Sigma-Aldrich manufacturer’s instructions. Briefly, compounds were added in 100 µL of the cultural medium, and cells were incubated for the next 24 and 48 h. Doxorubicin was used as a reference drug. The DMSO was added to dissolve the crystals of formazan. We used the ThermoScientific Evolution 201 UV–VIS spectrophotometer (ThermoFisher Scientific, Waltham, MA, USA) to measure the absorbance of formazan at 570 nm. The initial value of the relative number of cells in control (under 0.1% of the DMSO) was accepted as 100%. We used GraphPad Prism Version 9 to calculate the half-maximal inhibition concentration (IC50) of the studied compounds (the concentration of the drug that reduced cell viability by 50%).
# HCC1954 cells [7] = assay: MTT assay; assay type: cell-based; settings: Homo sapiens, read-out: IC50, µM (M ± SD)
# Method: as §4, §5
# MCF-7 cells [8] = assay: MTT assay; assay type: cell-based; settings: Homo sapiens, read-out: IC50, µM (M ± SD)
# Method: as §4, §5
# T-47D cells = assay: MTT assay; assay type: cell-based; settings: Homo sapiens, T47D, read-out: IC50, µM (M ± SD)
# Method: as §4, §5
# 4T1 cells = assay: MTT assay; assay type: cell-based, murine; settings: Mus musculus, read-out: IC50, µM (M ± SD)
# Method: as §4, §5
# MCF-10A cells [9] = assay: MTT assay; assay type: cell-based, human; settings: Homo sapiens, MCF-10A, MCF-10A
# Method: as §4, §5
# MDA-MB-231 cells [10] = assay: Clonogenic assay; assay type: cell-based, human; settings: for IC50: Homo sapiens, MDA-MB-231, 72 h exposure, 14 days culture, read-out: IC50 (M ± SD) in clonogenic assay
# Method: as §3
# HCC1954 cells [11] = assay: Clonogenic assay; assay type: cell-based, human; settings: for IC50: Homo sapiens, HCC1954, 72 h exposure, 14 days culture, read-out: IC50 (M ± SD) in clonogenic assay
# Method: as §3
# MCF-7 cells [12] = assay: Clonogenic assay; assay type: cell-based, human; settings: for IC50: Homo sapiens, MCF7, MCF-7, 72 h exposure, 14 days culture, read-out: IC50 (M ± SD) in clonogenic assay
# Method: as §3
# [13] = 24 h, 24 h, read-out: IC50, µM (M ± SD)
# [14] = 48 h, 48 h, read-out: IC50, µM (M ± SD)
Structure (SMILES),MMP-9 concentration versus control [1],early apoptotic cells (MDA-MB-231 cells [2]; 1 µM) [%],late apoptotic cells (MDA-MB-231 cells [2]; 1 µM) [%],necrotic cells (MDA-MB-231 cells [2]; 1 µM),early apoptotic cells (MCF-7 cells [3]; 1 µM) [%],late apoptotic cells (MCF-7 cells [3]; 1 µM) [%],necrotic cells (MCF-7 cells [3]; 1 µM),IC50 (MCF-10A cells [4]) [nM],concentration of MMP-2 [5] [pg/mL],"IC50 (MDA-MB-231 cells [6]; MDA-MB-231, 24 h) [µM]","IC50 (MDA-MB-231 cells [6]; MDA-MB-231, 48 h) [µM]","IC50 (HCC1954 cells [7]; HCC1954, 24 h) [µM]","IC50 (HCC1954 cells [7]; HCC1954, 48 h) [µM]","IC50 (MCF-7 cells [8]; MCF7, MCF-7, 24 h) [µM]","IC50 (MCF-7 cells [8]; MCF7, MCF-7, 48 h) [µM]",IC50 (T-47D cells; 24 h) [µM],IC50 (T-47D cells; 48 h) [µM],"IC50 (4T1 cells; 4T1, 24 h) [µM]","IC50 (4T1 cells; 4T1, 48 h) [µM]",IC50 (MCF-10A cells [9]; [13]) [µM],other results
"COc1cccc2c1C(=O)c1c(O)c3c(c(O)c1C2=O)C[C@@](O)(C(=O)CO)C[C@@H]3O[C@H]1C[C@H](N)[C@H](O)[C@H](C)O1 [Dox, doxorubicin, reference compound]",decreased,0.10 ± 0.01,42.20 ± 17.25,51.25 ± 3.36% and 51.25%,0.55 ± 0.07,60.60 ± 7.35,31.75 ± 5.59% and 31.75%,470 ± 110,470.57,6.18 ± 0.08,1.09 ± 0.09,1.9 ± 0.11,1.15 ± 0.16,3.47 ± 0.49,0.18 ± 0.07,3.66 ± 0.33,2.31 ± 0.24,2.37 ± 0.25,1.98 ± 0.21,15.9 ± 0.91,concentration of MMP-2 (MMP-2 in MCF-7 cells; 2 μM): 425.40 pg/mL; IC50 (MCF-10A cells [9]; [14]): 0.23 ± 0.05 µM; IC50 (MDA-MB-231 cells [10]): 420 ± 110 nM; IC50 (HCC1954 cells [11]): 430 ± 110 nM; IC50 (MCF-7 cells [12]): 420 ± 80 nM
"O=C1CC(N2C(=O)C(=CC(Cl)=Cc3ccc([N+](=O)[O-])cc3)SC2=S)C(=O)N1c1ccc(O)cc1 (stereo not drawn) [Les-6287, 1-(4-hydroxyphenyl)-3-[5-[2-chloro-3-(4-nitrophenyl)prop-2-enylidene]-4-oxo-2-thioxothiazolidine-3-yl]pyrrolidine-2,5-dione]",decreased,2.10 ± 0.14,5.10 ± 0.49,0.90 ± 0.02%,3.85 ± 1.20,21.60 ± 0.78,0.50 ± 0.24%,> 50000,711.74,3.86 ± 0.24,1.37 ± 0.15,2.52 ± 0.65,2.25 ± 0.64,2.34 ± 0.16,1.43 ± 0.18,3.11 ± 0.19,1.74 ± 0.25,1.6 ± 0.14,1.62 ± 0.21,93 ± 2.29,"early apoptotic cells (MDA-MB-231 cells [2]; 1.5 µM): 5.65 ± 0.92%; late apoptotic cells (MDA-MB-231 cells [2]; 1.5 µM): 29.00 ± 9.76%; necrotic cells (MDA-MB-231 cells [2]; 1.5 µM): 4.50 ± 1.82%; necrotic cells, range (MDA-MB-231 cells [2]; 1 and 1.5 µM): 0.90–4.50%; early apoptotic cells (MCF-7 cells [3]; 1.5 µM): 2.30 ± 0.42%; late apoptotic cells (MCF-7 cells [3]; 1.5 µM): 29.35 ± 6.43%; necrotic cells (MCF-7 cells [3]; 1.5 µM): 0.30 ± 0.11%; necrotic cells, range (MCF-7 cells [3]; 1 and 1.5 µM): 0.30–0.50%; inhibition at 50 µM (MCF-10A cells [4]; compound at 50 µM, read-out: inhibition of the formation of colonies): 32.6%; concentration of MMP-2 (MMP-2 in MCF-7 cells; compound concentration not stated (most significant decrease)): 395.91 pg/mL; IC50 (MCF-10A cells [9]; [14]): 64.6 ± 0.68 µM; IC50 (MCF-10A cells [9]; time point not specified (24 and 48 h), read-out: IC50 towards MCF-10A cells): > 64.6 µM; IC50 (MDA-MB-231 cells [10]): 420 ± 110 nM; formation of colonies (MDA-MB-231 cells [10]; MDA-MB-231, compound at 1 µM): totally inhibited; formation of colonies (HCC1954 cells [11]; HCC1954, compound at 1 µM): totally inhibited; IC50 (HCC1954 cells [11]): 430 ± 110 nM; IC50 (MCF-7 cells [12]): 420 ± 80 nM; formation of colonies (MCF-7 cells [12]; MCF-7, compound at 1 µM): totally inhibited"
